# Assay results from article PMC6358863, “Involvement of the Hydroperoxy Group in the Irreversible Inhibition of Leukocyte-Type 12-Lipoxygenase by Monoterpene Glycosides Contained in the Qing Shan Lu Shui Tea” (Molecules, 2019).
# Where two headings read alike, the source gives them in different places.
# Experiments:
# [1] = target: T1, leukocyte-type 12-lipoxygenase (Mus musculus, UniProt P39654); experiment: leukocyte-type 12-lipoxygenase inhibition assay (arachidonic acid, HPLC quantification); assay type: biochemical; details: 25 μM arachidonic acid, 30 °C, 5 min; for inhibitory effect on leukocyte-type 12-lipoxygenase activity (in words): various concentrations (Figure 5)
# T1 sequence (P39654 1-663): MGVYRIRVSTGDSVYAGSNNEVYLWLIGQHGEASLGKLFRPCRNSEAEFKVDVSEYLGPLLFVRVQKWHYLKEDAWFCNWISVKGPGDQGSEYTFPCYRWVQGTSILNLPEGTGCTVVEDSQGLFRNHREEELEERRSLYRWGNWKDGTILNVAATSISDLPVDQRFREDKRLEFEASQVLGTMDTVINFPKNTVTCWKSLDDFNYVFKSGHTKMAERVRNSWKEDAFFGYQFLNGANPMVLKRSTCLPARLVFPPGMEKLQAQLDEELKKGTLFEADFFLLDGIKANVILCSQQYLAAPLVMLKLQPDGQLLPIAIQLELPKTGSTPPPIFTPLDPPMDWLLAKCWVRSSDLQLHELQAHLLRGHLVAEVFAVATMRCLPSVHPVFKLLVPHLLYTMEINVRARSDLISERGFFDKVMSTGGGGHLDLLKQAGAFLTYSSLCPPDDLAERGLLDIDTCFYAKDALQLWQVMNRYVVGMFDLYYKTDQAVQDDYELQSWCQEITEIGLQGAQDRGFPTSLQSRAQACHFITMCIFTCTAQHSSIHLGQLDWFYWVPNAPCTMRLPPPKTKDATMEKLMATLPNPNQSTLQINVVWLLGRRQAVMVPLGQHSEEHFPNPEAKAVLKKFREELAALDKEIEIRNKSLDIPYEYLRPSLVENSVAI
# Procedure: Figure 3 Inhibition of the leukocyte-type 12-lipoxygenase activity by liguroside C (closed circles) and liguroside D (open circles). Leukocyte-type 12-lipoxygenase was incubated with 25 μM arachidonic acid at 30 °C for 5 min in the standard reaction mixture, in the presence of inhibitors at various concentrations and the products were quantified using a reverse-phase HPLC. Relative enzyme activities, as compared with the activity without inhibitors, are shown.
# Figure 5 Inhibition of the leukocyte-type 12-lipoxygenase activity by liguroside A (closed circles), kudingoside B (grey circles), kudingoside A (open circles), and lipedoside B-III (open lozenges). Leukocyte-type 12-lipoxygenase was incubated with 25 μM arachidonic acid, at 30 °C, for 5 min, in the standard reaction mixture in the presence of inhibitors, at various concentrations, and the products were quantified using a reverse-phase HPLC. Relative enzyme activities, as compared with the activity without inhibitors, are shown.
# The lipoxygenase and cyclooxygenase reactions were carried out, as described previously. Briefly, leukocyte-type 12-lipoxygenase or 15-lipoxygenase-1 was preincubated with inhibitors, in a volume of 0.2 mL in 100 mM Tris-HCl buffer, at pH 7.4, for 5 min at 30 °C, and was then incubated with 25 μM arachidonic acid for 5 min at 30 °C. Platelet-type 12-lipoxygenase reaction was carried out the as same as leukocyte-type 12-lipoxygenase reaction, except for incubation condition of 30 min at 37 °C. 5-Lipoxygenase was preincubated in 100 mM Tris-HCl buffer at pH 7.4, 2 mM CaCl2, and 2 mM ATP, with inhibitors, for 5 min on ice and then incubated with 25 μM arachidonic acid, for 5 min at 30 °C. To reduce the metabolites of each lipoxygenase isozyme, we added glutathione peroxidase (0.1 unit) and 5 mM glutathione to the mixture, followed by incubation for another 20 min. The enzyme reactions of cyclooxygenase-1 and cyclooxygenase-2 were carried out, as described previously. Briefly, cyclooxygenase-1 and cyclooxygenase-2 were preincubated with inhibitors in a volume of 0.2 mL in 100 mM Tris-HCl buffer at pH 7.4, 2 μM hematin, and 5 mM tryptophan, for 5 min at 24 °C, and then incubated with 25 μM […], for 5 min at 24 °C. After the reaction was quenched by an addition of 50 mM HCl, 0.5 nmol of 15-HEDE were added as an internal standard for enzyme reactions. The products extracted with ice-cold diethyl ether were analyzed by a reverse-phase HPLC, using a Waters Alliance system equipped with a COSMOSIL 5C18-MS-II column (5-μm particle, 250 × 4.6 mm i.d., Nacalai), with a solvent system of methanol-water-acetic acid (80:20:0.01, v/v), at a flow rate of 1 mL/min, as previously described. Absorption at 235 nm was continuously monitored, using a Waters 2489 UV/Visible detector (Waters, Milford, MA, USA). Protein concentration was determined using a bicinchoninic acid protein assay kit (Thermo Fisher Scientific, Waltham, MA, USA), with bovine serum albumin as a standard.
# [2] = target: T1, leukocyte-type 12-lipoxygenase; set-up: method as in PMID 23579993; details: cited from earlier work
# [3] = target: T1, leukocyte-type 12-lipoxygenase; experiment: reversibility analysis of leukocyte-type 12-lipoxygenase inhibition (preincubation, 200-fold dilution); assay type: biochemical
# Procedure: The preincubation mixture was 200-fold diluted 0, 5, 15, and 30 min, before starting the enzyme reaction under the standard condition for the lipoxygenase assay. […] On the other hands, tested ligurosides inhibited the leukocyte-type 12-lipoxygenase activity, even after 30 min, indicating an irreversible inhibition of the enzyme activity (Figure 4). Figure 4 Reversibility analysis of the leukocyte-type 12-lipoxygenase inhibition. The leukocyte-type 12-lipoxygenase was preincubated with 6 μM quercetin, liguroside A, liguroside C, and liguroside D, at 30 °C, for 5 min, and then the mixture was 200-fold diluted in the standard lipoxygenase reaction mixture. After 0, 5, 15, and 30 min, the mixtures were incubated with 25 μM arachidonic acid at 30 °C, for 5 min. […] The products extracted with ice-cold diethyl ether were analyzed by a reverse-phase HPLC, using a Waters Alliance system equipped with a COSMOSIL 5C18-MS-II column (5-μm particle, 250 × 4.6 mm i.d., Nacalai), with a solvent system of methanol-water-acetic acid (80:20:0.01, v/v), at a flow rate of 1 mL/min, as previously described. Absorption at 235 nm was continuously monitored, using a Waters 2489 UV/Visible detector (Waters, Milford, MA, USA). Protein concentration was determined using a bicinchoninic acid protein assay kit (Thermo Fisher Scientific, Waltham, MA, USA), with bovine serum albumin as a standard.
structure (smiles),measurement,setting,value
C/C(=C\CO[C@@H]1O[C@H](CO)[C@@H](OC(=O)/C=C/c2ccc(O)cc2)[C@H](O[C@@H]2O[C@@H](C)[C@H](O)[C@@H](O)[C@H]2O)[C@H]1O)C/C=C/C(C)(C)O [kudingoside B],inhibitory effect on leukocyte-type 12-lipoxygenase activity (in words),[1],lower inhibitory effect
CC(C)=CCC/C(C)=C/CO[C@@H]1O[C@H](CO)[C@@H](OC(=O)/C=C/c2ccc(O)cc2)[C@H](O[C@@H]2O[C@@H](C)[C@H](O)[C@@H](O)[C@H]2O)[C@H]1O [kudingoside A],inhibitory effect on leukocyte-type 12-lipoxygenase activity (in words),[1],did not inhibit
C=C(C)C(CC/C(C)=C/CO[C@@H]1O[C@H](CO)[C@@H](OC(=O)/C=C/c2ccc(O)cc2)[C@H](O[C@@H]2O[C@@H](C)[C@H](O)[C@@H](O)[C@H]2O)[C@H]1O)OO (stereo partly drawn) [liguroside D],IC50,[1],4200 nM
"O=C(O)C=Cc1ccc(O)cc1 [p-Coumaric acid, reference compound]",inhibition of leukocyte-type 12-lipoxygenase activity (in words),[2],no inhibition
"C=CC(C)(C/C=C/C(C)(C)OO)O[C@@H]1O[C@H](CO)[C@@H](OC(=O)/C=C/c2ccc(O)cc2)[C@H](O[C@@H]2O[C@@H](C)[C@H](O)[C@@H](O)[C@H]2O)[C@H]1O (stereo partly drawn) [liguroside C, (5E)-7-hydroperoxy-3,7-dimethyl-1,5-octadienyl-3-O-(α-L-rhamnopyranosyl)-(1′′→3′)-(4′′′-O-trans-p-coumaroyl)-β-D-glucopyranoside]",IC50,[1],2900 nM
O=c1c(O)c(-c2ccc(O)c(O)c2)oc2cc(O)cc(O)c12 [quercetin],inhibition of leukocyte-type 12-lipoxygenase activity at 6 μM (in words),"[3]; preincubated 5 min with 6 μM, no dilution",almost completely inhibited
same,reversibility of leukocyte-type 12-lipoxygenase inhibition after dilution,"[3]; preincubation 6 μM 5 min at 30 °C, 200-fold dilution, 0, 5, 15 and 30 min before reaction",quickly recovered
C/C(=C\CO[C@@H]1O[C@H](CO)[C@@H](OC(=O)/C=C\c2ccc(O)cc2)[C@H](O[C@@H]2O[C@@H](C)[C@H](O)[C@@H](O)[C@H]2O)[C@H]1O)C/C=C/C(C)(C)OO [liguroside B],IC50,"[2]; previous report, read-out: IC50, inhibition of leukocyte-type 12-lipoxygenase activity",700 nM
C=CC(C)(CCC=C(C)C)O[C@@H]1O[C@H](CO)[C@@H](OC(=O)/C=C/c2ccc(O)cc2)[C@H](O[C@@H]2O[C@@H](C)[C@H](O)[C@@H](O)[C@H]2O)[C@H]1O (stereo partly drawn) [lipedoside B-III],inhibitory effect on leukocyte-type 12-lipoxygenase activity (in words),[1],did not inhibit
